From article PMC6193938, “Characterization of a novel AICARFT inhibitor which potently elevates ZMP and has anti-tumor activity in murine models” (Scientific Reports, 2018)
Read-outs that look alike come from different tables or passages of the source.

How the values were obtained:
PKCb2 = biological target: T1, PKCb2 (Homo sapiens, UniProt P05771); test: CEREP protein kinase assay; format: biochemical
T1 construct: purchased CEREP Panlabs (Eurofins)

PDGFRa = biological target: T2, PDGFRa (Homo sapiens, UniProt P16234); test: CEREP protein kinase assay; format: biochemical
T2 construct: purchased CEREP Panlabs (Eurofins)
T2 sequence (P16234 24-1089): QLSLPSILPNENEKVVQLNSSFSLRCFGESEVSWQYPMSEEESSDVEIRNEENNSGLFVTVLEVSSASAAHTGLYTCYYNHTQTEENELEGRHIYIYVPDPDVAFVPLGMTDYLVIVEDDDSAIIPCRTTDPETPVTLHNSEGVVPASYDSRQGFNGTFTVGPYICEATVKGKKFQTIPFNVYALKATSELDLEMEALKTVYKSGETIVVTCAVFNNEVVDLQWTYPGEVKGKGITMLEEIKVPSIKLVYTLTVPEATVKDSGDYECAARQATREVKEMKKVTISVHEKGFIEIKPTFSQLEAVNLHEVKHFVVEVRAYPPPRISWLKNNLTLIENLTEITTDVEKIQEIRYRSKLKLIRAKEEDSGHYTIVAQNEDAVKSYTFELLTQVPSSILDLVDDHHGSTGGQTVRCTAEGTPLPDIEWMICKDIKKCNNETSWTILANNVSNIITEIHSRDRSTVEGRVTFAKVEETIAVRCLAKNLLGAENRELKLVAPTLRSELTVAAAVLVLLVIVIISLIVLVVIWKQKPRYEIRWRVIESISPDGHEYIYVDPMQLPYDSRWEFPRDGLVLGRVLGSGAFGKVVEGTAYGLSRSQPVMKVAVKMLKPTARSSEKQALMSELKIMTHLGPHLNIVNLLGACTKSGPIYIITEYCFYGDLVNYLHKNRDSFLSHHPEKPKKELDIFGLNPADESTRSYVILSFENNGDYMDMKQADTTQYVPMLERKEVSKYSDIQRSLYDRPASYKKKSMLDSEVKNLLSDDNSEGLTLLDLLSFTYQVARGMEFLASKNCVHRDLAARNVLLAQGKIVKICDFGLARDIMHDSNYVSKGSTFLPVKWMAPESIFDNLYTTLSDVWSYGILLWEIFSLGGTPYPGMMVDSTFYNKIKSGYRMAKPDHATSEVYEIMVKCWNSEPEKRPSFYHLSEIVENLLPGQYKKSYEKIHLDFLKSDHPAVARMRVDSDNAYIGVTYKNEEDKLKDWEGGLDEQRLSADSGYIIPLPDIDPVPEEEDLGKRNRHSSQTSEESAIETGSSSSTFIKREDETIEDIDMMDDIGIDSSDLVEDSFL

NCI-H460 (lung) = test: MS detection of ZMP in cultured cells; format: cell-based, human; settings: for EC50: 16 hours; for peak intracellular ZMP levels: NCI-H460 cells, calculated with 4 pL cell volume
Procedure: (§1) Cells lines were acquired from cell banks, see supplemental material, grown using the cell banks recommended culture conditions (Supplemental Table 3). In some experiments noted “low folate” the cells were washed and grown in folate free RPMI-1640 media (Gibco #27016-021) supplemented with 5 ml 1 M Hepes, 5 ml 100 mM Na pyruvate, 2.5 mg/ml glucose and 10% defined FBS (Hyclone #SH30070) per 500 mL media for 5–7 days to deplete intracellular folate levels prior to the start of the experiment. Where noted, cells were maintained in complete “high folate” RPMI-1640 media (ATCC #30-2001) with 10% defined FBS to contrast with the low folate conditions.
(§2) ZMP was detected in cultured cells via mass spec analysis. Cells were plated in 96-well plates at 25,000 cells per well in 100 µL with either high or low folate RPMI media and incubated overnight at 37 °C with 5% CO2. Cells were treated with inhibitor compounds for 16 hours, 0.5% DMSO final concentration. Growth media was decanted and cells were lysed for 10 min at room temperature with 50 µL per well of 1x Sure Fire Lysis buffer (Perkin Elmer, SureFire kit component). Aliquots (40 µL) of standard or sample were combined in a deep 96-well plate with 160 µL of internal standard solution containing ^13C5-ZMP (custom synthesis) and ^13C5-AICAr (custom synthesis) at 100 ng/mL in 40 mM ammonium acetate, pH 4. 400 µL of dichloromethane was added to each sample. Samples were sealed, vortexed for 5 minutes, and placed in the refrigerator for at least 30 minutes. The samples were centrifuged at 4 °C for 10 minutes at 16,600 g. 75 µL of the aqueous layer were transferred to a clean 96-well plate and seal prior to analysis.
(§3) The LC-MS method utilizes a Shimadzu Prominence 20 A HPLC system connected to an AB Sciex 5500™ or an AB Sciex 6500™ triple quadrupole mass spectrometer. Extracted samples were separated using a Thermo Hypercarb™ Javelin guard column (2.1 × 20 mm, 5 µm) with an injection volume of 15 µL and a flow rate of 1 mL/minute.
(§4) ZMP, AICAr and dUMP were detected using positive ion TurboIonSpray® multiple reaction monitoring mode and the data were processed with AB Sciex MultiQuant™. Back-calculated ZMP concentrations were fit to a four-parameter logistic equation using ACTIVITYBASE 4.0 to determine EC50 values relative to the maximum observed metabolite levels.

MDA-MB-231 (mammary) = test: MS detection of ZMP in cultured cells; format: cell-based, human; settings: for EC50: Homo sapiens, 16 hours
Procedure: as §1, §2, §3, §4

Pharmacokinetic studies = format: in vivo; settings: mouse
Procedure: Blood samples were obtained through tail clip at 0, 0.08 (IV only), 0.25, 0.75, 2, 4, 8, and 24 hours where approximately 20 µL of blood was filled to capacity into EDTA-coated capillary tubes (Fisher Scientific,) and spotted on to Whatman® DMPK-C DBS collection (GE Healthcare Bio-Sciences). Once spotted, the cards were allowed to dry for 2 hours, placed in Ziploc® bags (S.C. Johnson & Son, Inc.) and shipped to the bioanalytical facility at ambient temperature. Punches (3 mm) from DBS cards were extracted with 180 µL of a 20 ng/mL analog IS (proprietary Lilly compound) in methanol/acetonitrile (1:1, v/v) solution in 96-well plates. Samples were quantitated using LC-MS analysis (AB Sciex® API 4000 triple-quadrupole mass spectrometer (Life Technologies Corporation). PK parameters were calculated for concentration time profiles using Watson LIMS version 7.4 (Thermo Scientific).

CDK1 = biological target: T3, CDK1 (Homo sapiens, UniProt P06493); test: CEREP protein kinase assay; format: biochemical
T3 construct: purchased CEREP Panlabs (Eurofins)

ABL = biological target: T4, ABL (Homo sapiens, UniProt P00519); test: CEREP protein kinase assay; format: biochemical
T4 construct: purchased CEREP Panlabs (Eurofins)
T4 sequence (P00519 whole entry): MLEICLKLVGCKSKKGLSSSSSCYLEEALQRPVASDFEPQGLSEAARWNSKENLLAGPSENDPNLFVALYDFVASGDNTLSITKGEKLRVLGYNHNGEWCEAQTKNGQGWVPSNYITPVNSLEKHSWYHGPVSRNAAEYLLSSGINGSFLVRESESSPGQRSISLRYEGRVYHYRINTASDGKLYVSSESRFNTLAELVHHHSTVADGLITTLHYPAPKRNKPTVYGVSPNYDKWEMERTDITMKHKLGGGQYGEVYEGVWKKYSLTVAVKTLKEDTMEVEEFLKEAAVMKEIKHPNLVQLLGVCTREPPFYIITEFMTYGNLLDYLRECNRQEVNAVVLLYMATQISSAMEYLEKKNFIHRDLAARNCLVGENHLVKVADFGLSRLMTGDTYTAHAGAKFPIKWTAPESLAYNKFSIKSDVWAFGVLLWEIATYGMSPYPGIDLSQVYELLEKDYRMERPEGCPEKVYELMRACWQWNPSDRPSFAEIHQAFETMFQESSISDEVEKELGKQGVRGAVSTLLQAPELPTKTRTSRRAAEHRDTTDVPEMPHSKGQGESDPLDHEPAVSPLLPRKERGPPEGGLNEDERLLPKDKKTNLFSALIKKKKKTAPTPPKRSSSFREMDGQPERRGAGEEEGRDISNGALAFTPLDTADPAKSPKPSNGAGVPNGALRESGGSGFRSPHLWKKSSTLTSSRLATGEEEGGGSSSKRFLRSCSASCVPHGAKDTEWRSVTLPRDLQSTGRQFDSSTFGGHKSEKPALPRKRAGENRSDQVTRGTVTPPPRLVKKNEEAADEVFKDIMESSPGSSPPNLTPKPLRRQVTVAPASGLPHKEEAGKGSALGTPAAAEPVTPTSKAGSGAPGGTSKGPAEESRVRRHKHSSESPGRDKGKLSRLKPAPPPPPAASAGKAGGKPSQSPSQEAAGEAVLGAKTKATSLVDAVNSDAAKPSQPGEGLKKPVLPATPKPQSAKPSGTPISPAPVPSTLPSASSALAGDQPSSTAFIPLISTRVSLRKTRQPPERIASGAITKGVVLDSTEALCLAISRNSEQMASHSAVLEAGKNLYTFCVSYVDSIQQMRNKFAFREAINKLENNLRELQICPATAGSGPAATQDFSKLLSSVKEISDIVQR

TNK2 = biological target: T5, TNK2 (Homo sapiens, UniProt Q07912); test: CEREP protein kinase assay; format: biochemical
T5 construct: purchased CEREP Panlabs (Eurofins)
T5 sequence (Q07912 whole entry): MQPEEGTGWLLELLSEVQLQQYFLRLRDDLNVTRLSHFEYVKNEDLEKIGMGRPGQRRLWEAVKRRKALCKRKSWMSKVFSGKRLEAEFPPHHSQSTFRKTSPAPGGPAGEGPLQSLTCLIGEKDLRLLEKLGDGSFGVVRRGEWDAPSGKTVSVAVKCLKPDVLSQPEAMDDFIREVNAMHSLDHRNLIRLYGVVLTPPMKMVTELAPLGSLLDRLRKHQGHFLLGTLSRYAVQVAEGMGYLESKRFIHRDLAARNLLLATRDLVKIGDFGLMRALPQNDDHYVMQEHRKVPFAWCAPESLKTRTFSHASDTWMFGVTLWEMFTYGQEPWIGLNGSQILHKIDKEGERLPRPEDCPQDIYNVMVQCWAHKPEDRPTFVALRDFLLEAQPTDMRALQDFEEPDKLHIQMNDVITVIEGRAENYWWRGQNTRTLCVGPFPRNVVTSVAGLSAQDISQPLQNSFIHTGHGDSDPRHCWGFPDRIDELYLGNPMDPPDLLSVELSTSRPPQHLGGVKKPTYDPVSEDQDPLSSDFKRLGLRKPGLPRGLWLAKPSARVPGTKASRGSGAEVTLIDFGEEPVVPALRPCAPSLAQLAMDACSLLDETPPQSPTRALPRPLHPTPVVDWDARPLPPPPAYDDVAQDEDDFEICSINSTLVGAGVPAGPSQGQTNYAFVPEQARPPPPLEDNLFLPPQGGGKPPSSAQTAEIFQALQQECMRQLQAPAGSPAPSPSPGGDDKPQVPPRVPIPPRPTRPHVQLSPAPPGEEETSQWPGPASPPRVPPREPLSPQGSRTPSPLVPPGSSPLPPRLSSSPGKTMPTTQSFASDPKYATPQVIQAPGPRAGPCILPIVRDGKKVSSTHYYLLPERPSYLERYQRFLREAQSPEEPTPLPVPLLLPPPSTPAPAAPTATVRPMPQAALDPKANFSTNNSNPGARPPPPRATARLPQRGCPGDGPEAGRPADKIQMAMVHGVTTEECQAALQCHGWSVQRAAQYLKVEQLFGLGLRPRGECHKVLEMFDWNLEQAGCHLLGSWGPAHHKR

IGF1R = biological target: T6, IGF1R (Homo sapiens, UniProt P08069); test: CEREP protein kinase assay; format: biochemical
T6 construct: purchased CEREP Panlabs (Eurofins)
T6 sequence (P08069 31-1367): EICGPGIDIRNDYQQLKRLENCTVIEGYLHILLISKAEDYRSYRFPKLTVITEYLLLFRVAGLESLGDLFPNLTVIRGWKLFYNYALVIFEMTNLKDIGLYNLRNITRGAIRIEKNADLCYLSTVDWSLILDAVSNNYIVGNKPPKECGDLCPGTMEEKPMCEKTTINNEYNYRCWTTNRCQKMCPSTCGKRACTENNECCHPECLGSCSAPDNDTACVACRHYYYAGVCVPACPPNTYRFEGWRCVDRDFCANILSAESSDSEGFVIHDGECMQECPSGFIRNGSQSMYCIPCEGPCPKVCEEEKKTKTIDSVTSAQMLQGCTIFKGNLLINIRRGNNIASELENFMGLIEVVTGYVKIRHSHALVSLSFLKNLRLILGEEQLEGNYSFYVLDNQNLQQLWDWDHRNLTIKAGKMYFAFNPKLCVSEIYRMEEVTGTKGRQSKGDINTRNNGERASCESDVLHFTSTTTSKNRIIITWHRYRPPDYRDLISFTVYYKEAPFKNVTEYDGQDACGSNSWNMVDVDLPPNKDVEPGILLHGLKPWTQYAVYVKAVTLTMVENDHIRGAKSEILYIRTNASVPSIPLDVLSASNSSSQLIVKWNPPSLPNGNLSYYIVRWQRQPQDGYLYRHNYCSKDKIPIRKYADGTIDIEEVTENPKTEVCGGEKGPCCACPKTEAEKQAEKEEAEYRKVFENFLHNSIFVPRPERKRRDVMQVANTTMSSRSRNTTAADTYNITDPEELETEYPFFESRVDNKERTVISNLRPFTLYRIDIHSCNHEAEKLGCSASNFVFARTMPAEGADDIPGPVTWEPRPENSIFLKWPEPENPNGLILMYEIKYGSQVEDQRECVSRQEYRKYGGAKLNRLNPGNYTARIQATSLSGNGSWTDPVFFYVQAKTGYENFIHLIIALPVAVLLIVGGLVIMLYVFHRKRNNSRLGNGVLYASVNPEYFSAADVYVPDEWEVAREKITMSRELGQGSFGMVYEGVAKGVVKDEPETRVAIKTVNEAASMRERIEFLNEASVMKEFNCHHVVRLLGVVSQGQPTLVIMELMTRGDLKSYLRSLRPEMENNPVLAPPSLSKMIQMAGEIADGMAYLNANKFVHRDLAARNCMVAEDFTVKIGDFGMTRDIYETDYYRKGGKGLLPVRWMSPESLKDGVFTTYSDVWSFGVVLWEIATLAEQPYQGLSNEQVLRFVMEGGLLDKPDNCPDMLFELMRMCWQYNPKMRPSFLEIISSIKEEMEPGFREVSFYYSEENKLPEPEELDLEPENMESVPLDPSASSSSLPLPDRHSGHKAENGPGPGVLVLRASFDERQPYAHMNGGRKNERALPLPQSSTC

PYK2 = biological target: T7, PYK2 (Homo sapiens, UniProt Q14289); test: CEREP protein kinase assay; format: biochemical
T7 construct: purchased CEREP Panlabs (Eurofins)

[1] = male, CD-1, whole blood (dried blood spots), oral 10 mg/kg

SMILES: O=c1[nH]ccc2cc(F)c(NS(=O)(=O)c3ccc(N4CC[C@@H](O)C4)s3)cc12 [LSN3213128, N-(6-Fluoro-1-oxo-1,2-dihydroisoquinolin-7-yl)-5-[(3R)-3-hydroxypyrrolidin-1-yl]thiophene-2-sulfonamide]
- inhibition at 0.2 µM (PKCb2; @ 0.2 uM): -3.72%
- inhibition at 2 µM (PKCb2; @ 2 uM): -1.04%
- inhibition at 20 µM (PKCb2; @ 20 uM): -3.76%
- inhibition at 0.2 µM (PDGFRa; @ 0.2 uM): -10.5%
- inhibition at 2 µM (PDGFRa; @ 2 uM): 12.3%
- inhibition at 20 µM (PDGFRa; @ 20 uM): 44.9%
- EC50 (NCI-H460 (lung); Homo sapiens, NCI-H460, 16 h, NCI-H460, RPMI media, read-out: ZMP EC50 Regular folate): 438 nM
- EC50 (NCI-H460 (lung); Homo sapiens, NCI-H460, 16 h, NCI-H460, low folate RPMI media, read-out: ZMP EC50 Low folate): 8 nM
- EC50 (NCI-H460 (lung); NCI-H460, RPMI media, read-out: ZMP EC50 Regular folate): 428 ± 102 nM
- dUMP levels in tissue culture (NCI-H460 (lung); NCI-H460, data not shown): does not alter
- peak intracellular ZMP levels (NCI-H460 (lung); low folate media): 540 µM
- peak intracellular ZMP levels (NCI-H460 (lung); regular RPMI): about 2,700 μM
- EC50 (MDA-MB-231 (mammary); RPMI media, read-out: ZMP EC50 Regular folate): 89 nM
- EC50 (MDA-MB-231 (mammary); low folate RPMI media, read-out: ZMP EC50 Low folate): 7.6 nM
- dUMP levels in tissue culture (MDA-MB-231 (mammary); data not shown): does not alter
- Vd (Pharmacokinetic studies; male, CD-1, whole blood (dried blood spots), intravenous 1 mg/kg, read-out: volume of distribution): 0.779 ± 0.17 L/kg
- AUC (Pharmacokinetic studies; [1]): 20.2 ± 4.52 µM·h
- Cmax (Pharmacokinetic studies; [1]): 4.57 ± 0.559 µM
- bioavailability (Pharmacokinetic studies; male, CD-1, whole blood (dried blood spots), oral 10 mg/kg vs intravenous 1 mg/kg): 24.6 ± 4.6%
- half-life (Pharmacokinetic studies; oral 10 mg/kg): 2.4 ± 0.3 h
- unbound Cmax (Pharmacokinetic studies; oral 10 mg/kg): 0.251 ± 0.031 µM
- inhibition at 0.2 µM (CDK1; @ 0.2 uM): -4.14%
- inhibition at 2 µM (CDK1; @ 2 uM): 4.5%
- inhibition at 20 µM (CDK1; @ 20 uM): 5.99%
- inhibition at 0.2 µM (ABL; @ 0.2 uM): -13.8%
- inhibition at 2 µM (ABL; @ 2 uM): -14.6%
- inhibition at 20 µM (ABL; @ 20 uM): -0.27%
- inhibition at 0.2 µM (TNK2; @ 0.2 uM): -2.49%
- inhibition at 2 µM (TNK2; @ 2 uM): 16.4%
- inhibition at 20 µM (TNK2; @ 20 uM): 52.5%
- inhibition at 0.2 µM (IGF1R; @ 0.2 uM): -0.761%
- inhibition at 2 µM (IGF1R; @ 2 uM): 6.61%
- inhibition at 20 µM (IGF1R; @ 20 uM): 60.3%
- inhibition at 0.2 µM (PYK2; @ 0.2 uM): -25.1%
- inhibition at 2 µM (PYK2; @ 2 uM): -1.17%
- inhibition at 20 µM (PYK2; @ 20 uM): 16.5%
